Where no end group is shown, it is not given here. [ ]: non-standard residue; d: D form.
Tests used:
[1] = tested on: collagen I; experiment: Expression of collagen I in human fibroblasts made senescent by transfection with the siRNA FOXO3a; format: cell-based; details: 0.5 or 1 μM, 48 hours, siRNA FOXO3a transfected cells
Protocol: Protocol: Cultured human fibroblasts were treated or not treated with a specific siRNA of FOXO3a (Invitrogen, Ref. HSS177176) in a final concentration of 25 nM using the technique of transfection by Lipofectamine™ RNAiMAX (Invitrogen, Ref. 56531) and treated or not treated with hexapeptide-2 in a concentration of 0.5 or 1 μM in culture medium, for 48 hours (2 applications per day).
The fibroblasts were trypsinated and the cellular pellet was recovered. The cells were then fixed with cold methanol for 15 minutes at 4° C. Immunolabelling was carried out with the aid of a mouse monoclonal antibody specific for collagen I (Millipore, Ref. anti-Collagen Type I, Clone: 5D8-G9) coupled with a fluorochrome. Next, 10 000 cells were analysed using flow cytometry (Guava EasyCyte) in order to determine the level of fluorescence in each of them.

[2] = tested on: collagen III; experiment: Expression of collagen III in human skin in ex vivo culture; format: cell-based; details: 48 hours, untreated = 100
Protocol: (§1) Protocol: Samples of human skin were cultured at the air/liquid interface. Hexapeptide-2 was applied topically to the samples in concentrations of 0.5 and 1 μM after dilution in a culture medium, in an amount of 2 applications per day, then the samples were incubated for 48 hours at 37° C.
(§2) These skin samples were subsequently fixed with formaldehyde then included into paraffin. 4 μm sections were then produced.
(§3) Labelling of the collagens I and III was then carried out after demasking specific sites by microwave incubation then by treatment with trypsin. The immunolabelling was carried out with the aid of a rabbit polyclonal antibody specific for collagen I (Rockland, Ref. 600-401-103-0.5), a rabbit polyclonal antibody specific for collagen III (Rockland, Ref 600-401-105-0.5), then an anti-rabbit secondary antibody coupled to a fluorochrome (Invitrogen, Ref. A21206). The cells were then examined under an epifluorescence microscope (Zeiss Axiovert 200M microscope). A quantification of the fluorescence from the photographs obtained was carried out.

[3] = tested on: prolidase; experiment: Activity of prolidase in human fibroblasts (Gly-Pro substrate, Chinard's reagent); format: cell-based; details: untreated = 100
Protocol: Protocol: Cultured human fibroblasts were treated with hexapeptide-2 in a concentration of 0.5 and 1 μM after dilution in a culture medium, for 24 hours (2 applications per day). At the same time, fibroblasts were treated with an activator and an inhibitor of prolidase: retinoic acid (Sigma, Ref. R2625) and Cpz-Pro (Bachem, Ref. 4001343). Next, the cells were detached from the dish with the aid of a 150 mM NaCl solution. After having recovered the cellular pellet and activating the prolidase with a solution containing 2 mM MnCl2 for 2 hours at 37° C., the prolidase substrate was added: 47 mM of Glycine-Proline (Sigma, Ref. G3002) for 1 hour at 37° C. Next, the amount of proline contained in each sample was determined at a wavelength of 515 nm using Chinard's reagent. At the same time, a proline concentration range was produced in order to establish a calibration curve. The amount of protein was determined using the BCA protein assay kit (Thermo Scientific, Ref. 23225), which enabled the ratio of proline to the number of proteins in each sample to be recorded.

[4] = tested on: collagen; details: concentrations of 1 μM, 10 μM and 100 μM; cited from earlier work
[5] = tested on: human fibroblasts made senescent by transfection with the siRNA FOXO3a; experiment: Activity of β-galactosidase in human fibroblasts made senescent by transfection with the siRNA FOXO3a; format: cell-based; details: 1 μM, 48 hours, siRNA FOXO3a transfected cells; results not shown
Protocol: Protocol: Cultured human fibroblasts were treated or not treated with a specific siRNA of FOXO3a (Invitrogen, Ref. HSS177176) in a final concentration of 25 nM using the technique of transfection by Lipofectamine™ RNAiMAX (Invitrogen, Ref 56531) and treated or not treated with hexapeptide-2 in a final concentration of 1 μM in culture medium, for 48 hours (2 applications per day).
The cells were rinsed and fixed in a fixing buffer (0.2% glutaraldehyde, 2% formaldehyde). The cells were then incubated at 37° C. without CO2 for 24 hours, with a solution of 1 mg/mL X-Gal in 40 mM of citric acid/phosphate (pH 6), 5 mM K3FeCN6, 5 mM K4FeCN6, 150 mM NaCl and 2 mM MgCl2. The cells were then examined under white light with a microscope (Nikon Eclipse E600 microscope).

[6] = tested on: prolidase; experiment: Expression of prolidase in human fibroblasts (immunofluorescence); format: cell-based; details: 24 hours, 2 applications per day, untreated = 100
Protocol: Protocol: Cultured human fibroblasts were treated with hexapeptide-2 in a final concentration of 0.5 and 1 μM after dilution in a culture medium, for 24 hours (2 applications per day). The cells were then washed, fixed with cold methanol for 4 minutes at 4° C. The cells were incubated in the presence of a mouse monoclonal antibody specific for prolidase (LifeSpan BioSciences, Ref. LS-C115644), then of an anti-mouse secondary antibody coupled to a fluorochrome (Invitrogen, Ref. A21202). The cells were then examined under an epifluorescence microscope (Zeiss Axiovert 200M microscope). Quantification of the fluorescence was carried out from the photographs obtained.

[7] = tested on: collagen I; experiment: Expression of intracellular collagen I in human fibroblasts by flow cytometry; format: cell-based; details: untreated = 100
Protocol: Protocol: Cultured human fibroblasts were treated with hexapeptide-2 in a concentration of 0.5 and 1 μM after dilution in a culture medium, for 48 hours (2 applications per day). At the same time, fibroblasts were treated with an activator for collagen I: TGF-β (R&D system, Ref. 240B). The fibroblasts were trypsinated and the cellular pellet was recovered. The cells were then fixed with cold methanol for 15 minutes at 4° C. Immunolabelling was carried out with the aid of a mouse monoclonal antibody specific for collagen I (Millipore, Ref: anti-Collagen Type I, Clone: 5D8-G9) coupled with a fluorochrome. Next, 10 000 cells were analysed by flow cytometry (Guava EasyCyte) in order to determine the amount of fluorescence in each of them.

[8] = tested on: miRNA-29a 3p; experiment: Expression of miRNA-29a 3p in human fibroblasts made senescent by replicative senescence (long-term treatment); format: cell-based
Protocol: Protocol: Human fibroblasts were cultured in a specific medium and maintained under a long-term culture treatment (for more than 24 passes, i.e. approximately 3 months), treated or not treated by means of a daily application of hexapeptide-2 in a concentration of 1 μM in culture medium, (5 applications per week). For each pass, a portion of the cells was frozen. Next, three passes were selected: passes 4, 12 and 24.
The miRNAs were extracted with the aid of an extraction kit (Ambion, Ref AMI1561), then reverse transcribed with a specific kit (Applied Biosystems, Ref 4374966). A real-time PCR was carried out in a thermocycler with the aid of a TaqMan Gene Expression Assay specific for miRNA-29a 3p (Applied Biosystems, 002112) and a TaqMan Gene Expression Assay specific for RNU44 used as an endogenic control (Applied Biosystems, 001094). The relative quantification of the expression of miRNA-29a 3p was carried out using the comparative Ct method.

[9] = tested on: miRNA-29a 3p; experiment: Expression of miRNA-29a 3p in human fibroblasts from donors of different ages (qPCR); format: cell-based; details: overnight, concentration (0.5 or 1 μM) not stated
Protocol: Protocol: Human fibroblasts from 3 donors were treated with hexapeptide-2 in a concentration of 0.5 and 1 μM in culture medium overnight (1 application).
The miRNAs were extracted with the aid of an extraction kit (Ambion, Ref. AM1561), then reverse transcribed with a specific kit (Applied Biosystem, Ref 4374966). A real time PCR was carried out in a thermocycler using a TaqMan Gene Expression Assay specific for miRNA-29a 3p (Applied Biosystems, Ref 002112) and a TaqMan Gene Expression Assays specific for RNU44 used as the control endogen (Applied Biosystems, Ref. 001094). The relative quantification if the expression of miRNA-29a 3p was carried out by the comparative Ct method.

[10] = tested on: collagen I; experiment: Expression of collagen I in human skin in ex vivo culture; format: cell-based; details: 48 hours, untreated = 100
Protocol: as §1, §2, §3

[11] = tested on: prolidase; experiment: Activity of prolidase in human fibroblasts made senescent by replicative senescence (long-term treatment); format: cell-based; details: 1 μM daily long-term
Protocol: Protocol: Human fibroblasts were cultured in a specific medium and maintained under long-term culture treatment (for more than 20 passes, i.e. approximately 3 months), treated or not treated with the aid of a daily application of hexapeptide-2 in a concentration of 1 μM in culture medium, (5 applications per week). A portion of the cells was frozen for each pass. Next, two passes were selected: passes 12 and 20.
To this end, the cells were detached from their support with a solution of 150 mM NaCl. After recovering the cellular pellet and activating the prolidase with a solution containing 2 mM of MnCl2 for 2 hours at 37° C., the substrate for the prolidase was added: 47 mM of Glycine-Proline (Sigma, Ref. G3002), for 1 hour at 37° C. Next, the proline content contained in each sample was determined at a wavelength of 515 nm using Chinard's reagent. At the same time, a concentration range for proline was produced in order to establish a calibration curve. The protein content was determined using the BCA protein assay kit (Thermo Scientific, Ref. 23225), in order to relate the proline content with the number of proteins in each sample.

[12] = tested on: human fibroblasts made senescent by replicative senescence; experiment: Activity of β-galactosidase in human fibroblasts made senescent by replicative senescence (long-term treatment); format: cell-based; details: 1 μM daily, long-term (about 3 months), general over passes
Protocol: Protocol: Human fibroblasts were cultured in a specific medium and maintained under culture (for more than 27 passes) and treated or not treated with a daily application of hexapeptide-2 in a concentration of 1 μM in the culture medium, (i.e. 5 applications per week). A portion of the cells was frozen in each pass. Next, key passes were selected: passes 4, 12, 16, 20, 24 and 27. After freezing, the senescent phenotype of the fibroblasts treated or not treated with 1 μM hexapeptide-2 was evaluated by assaying the activity of β-galactosidase.
(§4) To this end, the cells were rinsed and fixed in a fixing buffer (0.2% glutaraldehyde, 2% formaldehyde). The cells were then incubated, at 37° C. without CO2 for 24 hours, with a solution of 1 mg/mL X-Gal in 40 mM of citric acid/phosphate (pH 6), 5 mM K3FeCN6, 5 mM K4FeCN6, 150 mM NaCl and 2 mM MgCl2. The cells were then examined under white light with a microscope (Nikon Eclipse E600 microscope).

[13] = tested on: senescent human fibroblasts by replicative senescence; experiment: Activity of β-galactosidase in senescent human fibroblasts by replicative senescence (short-term treatment); format: cell-based; details: 1 μM, 48 hours, general over passes
Protocol: Protocol: Human fibroblasts were cultured in a specific medium and maintained under long-term culture treatment (for more than 28 passes, i.e. approximately 3 months). A portion of the cells was frozen in each pass. Next, key passes were selected: passes 4, 12, 16, 20 and 28. After freezing, the fibroblasts were treated with 1 μM hexapeptide-2 in culture medium, for 48 hours (2 applications per day). The senescent phenotype of the fibroblasts treated or not treated with 1 μM hexapeptide-2 was evaluated by assaying the activity of the β-galactosidase.
as §4

His-D-Trp-Ala-Trp-D-Phe-Lys-NH2 (H[dW]AW[dF]K-NH2) [hexapeptide-2]
expression of collagen I in senescent cells [1]: smaller reduction in the expression of collagen I
Expression of Collagen III (%) ([2]; 0.5 μM topical): 155%
Expression of Collagen III (%) ([2]; 1 μM topical): 155%
Activity of prolidase (%) ([3]; 0.5 μM, 24 hours): 122%
Activity of prolidase (%) ([3]; 1 μM, 24 hours): 114%
effect on the secretion of collagen by fibroblasts cultured in vitro [4]: no effect
activity of β-galactosidase linked to senescence (number of blue-stained cells) [5]: visible reduction in the activity of β-galactosidase
Expression of prolidase (intensity/area of cells (%)) ([6]; 0.5 μM): 118%
Expression of prolidase (intensity/area of cells (%)) ([6]; 1 μM): 128%
Expression of collagen I (%) ([7]; 0.5 μM, 48 hours): 120%
Expression of collagen I (%) ([7]; 1 μM, 48 hours): 145%
effect on the expression of miRNA-29a 3p ([8]; pass 4, 1 μM daily long-term): no effect
reduction in the expression of miRNA-29a 3p ([8]; pass 12, 1 μM daily long-term): −16%
reduction in the expression of miRNA-29a 3p ([8]; pass 24, 1 μM daily long-term): −7%
reduction in the expression of miRNA-29a 3p ([9]; fibroblasts of donor one): −14%
reduction in the expression of miRNA-29a 3p ([9]; fibroblasts of donor three): −27%
reduction in the expression of miRNA-29a 3p ([9]; fibroblasts of donor two): −13%
Expression of collagen I (%) ([10]; 0.5 μM topical): 119%
Expression of collagen I (%) ([10]; 1 μM topical): 154%
restoration in the activity of prolidase compared with untreated control cells in the same pass ([11]; senescent cells (P20)): 20%
effect on activity of prolidase ([11]; young cells (P12)): little or no effect
reduction in the activity of beta-galactosidase compared with untreated cells [12]: −22%
reduction in the activity of the β-galactosidase compared with untreated cells [13]: −31%

CC1=C(/C=C/C(C)=C/C=C/C(C)=C/C(=O)O)C(C)(C)CCC1 [retinoic acid, reference compound]
Activity of prolidase (%) ([3]; 1 μM, 24 hours): 105%

O=C(O)[C@@H]1CCCN1C(=O)OCc1ccccc1 [Cpz-Pro, reference compound]
Activity of prolidase (%) ([3]; 10 mM): 90%

TGF-β: activator for collagen I (R&D system, Ref. 240B)
Expression of collagen I (%) ([7]; 10 ng/ml): 182%

Source: patent publication US11628133B2, “Uses of the peptide of sequence His-D-Trp-Ala-Trp-d-Phe-Lys-NH2 for reducing or delaying the appearance of cell senescence and signs of skin aging” (ISP INVESTMENTS LLC, priority 2015, dated 2023)
